Assay results: patent US7045529B2, “Imidazopyrimidinyl and imidazopyri dinyl derivatives” (Bristol-Myers Squibb Company, priority 1999, dated 2006)

Legend:
[1] = system: “anxiogenic” effects of CRF; conditions: cited from earlier work; for effect on the “anxiogenic” effects / actions of CRF in the conflict test: rats, literature (Britton et al.)

melting point	Structure (SMILES)	behavioral activity alone in the operant conflict test ([1]; compound alone, without CRF, literature (Britton et al. 1988))	effect on the “anxiogenic” effects / actions of CRF in the conflict test [1]
119 to 120 °C	CCc1nc2c(-c3ccc(OC(F)(F)F)cc3Cl)ncnc2n1C(C1CC1)C1CC1 [Example 8, 6-(2-Chloro-4-trifluoromethoxyphenyl)-9-dicyclopropylmethyl-8-ethylpurine]		
	CCOC(=O)c1ncn2c1CN(C)C(=O)c1cc(F)ccc1-2 [Ro15-1788]	without behavioral activity alone	reversed the effects of CRF in a dose-dependent manner
	CNC(=O)c1cc2c(cn1)[nH]c1ccccc12 [FG7142]		enhanced the actions of CRF
99 to 100 °C	CCCC(C)n1c(CC)nc2c(-c3ccc(OC(F)F)cc3Cl)ncnc21 (centres unmarked) [Example 10, 6-(2-Chloro-4-difluoromethoxyphenyl)-8-ethyl-9-(2-pentyl)purine]		
